These results are taken from patent US9388126B2, “Sigma receptor ligands and methods of modulating cellular protein homeostasis using same” (Drexel University, priority 2012, dated 2016).

The EC50 is the concentration giving half of the maximal effect.

Test [1] has as its system MDA-MB-468 (GFP-LC3) cells. Put plainly: GFP-LC3 punctae (autophagosome formation) microscopy assay. The format is cell-based, human. The note with it: for punctae per cell / mean number of punctae per cell: 24 hours; for autophagosomes per cell / GFP-LC3 punctae per cell: 10 μM for 20 hours. As for the experimental part:
The human GFP-LC3 expression plasmid, pEGFP-LC3 (a gift from Drs. Grazia Ambrosini and Gary K. Schwartz, MSKCC), was stably transfected into MDA-MB-468 and selected with 0.5 mg/ml G418 sulfate. Stable populations were generated and compared to parental MDA-MB-468 for Sigma1 expression and autophagic and growth inhibitory response to Sigma ligands. GFP-LC3 translocation (punctae formation) was assessed by microscopy in MDA-MB-468 (GFP-LC3) stable cell populations. For microscopy-based experiments, cells were seeded onto Lab-Tek II glass chamber slides (Nalge Nunc International). […] Images of GFP-LC3 punctae were acquired with a Zeiss Axioplan 2 Imaging widefield microscope using Axiovision LE software. Punctae were counted using the spot quantitation program in the Fluoro-Chem software package (Alpha Innotech) and confirmed in parallel by manual counting. Autophagosome formation in MDAMB-468 (GFP-LC3) cells was quantitated as the mean number of GFP-LC3 punctae per GFP positive cell.
Initially, an established immunoblot-based assay to detect microtubule associated protein light chain 3 (LC3) lipidation was used to test for the activation of autophagy. […] Since transient transfections can produce spurious GFP-LC3 aggregates, stable GFP-LC3 transfected populations of MDA-MB-468 (GFP-LC3) were generated. […]

Test [2] concerns the target T1, Sigma1-HA-His6 protein associations in MDA-MB-468 cells (Mus musculus, UniProt O55242).
T1 construct: expressed in transfected cells; host or cells: MDA-MB-468 breast adenocarcinoma cells
Put plainly: Ni-NTA co-purification of Sigma1-HA-His6 associated proteins. The test is classed as cell-based. As to conditions: 10 μM, 12 hours. The text has this: FIG. 44, comprising FIGS. 44A-44D, illustrates the finding that p97/VCP is a Sigma1 associated protein. A novel assay was developed to evaluate Sigma1 ligand modulation of Sigma1 functions involving protein-protein interactions. FIG. 44A is an image of an immunoblot confirming expression of p97/VCP and Sigma1-HA-His6 in detergent soluble cell extracts added to Ni-NTA resin (input). FIG. 44B is an image of an immunoblot relating to eluate from a Ni-NTA affinity purified fraction. Co-isolation/co-purification of p97/VCP was accomplished with Sigma1-HA-His6, which was isolated/purified by Ni-NTA. […] FIG. 44C is an image of an immunoblot confirming expression of p97/VCP and Sigma1-HA-His6 in detergent-soluble cell extracts from MDA-MB-468 breast adenocarcinoma cells treated for 12 hours with 10 μM IPAG (Sigma1 putative antagonist); the extracts were added to Ni-NTA resin (input). FIG. 44D is an image of an immunoblot illustrating eluate from a Ni-NTA affinity purified fraction. Co-isolation/co-purification of p97/VCP was accomplished with Sigma1-HA-His6, which was isolated/purified by Ni-NTA. […] Molecular mass is presented in kilodaltons (kDa).
FIG. 45, comprising FIGS. 45A-45B, illustrates the finding that ubiquitylated proteins are bound to Sigma1. A novel assay was developed to evaluate Sigma1 ligand modulation of Sigma functions involving association with ubiquitylated proteins. […]

Another test has as its system HER2/3 in SkBr-3 cells. Put plainly: HER2 and HER3 level immunoblots. The format is cell-based, human. As to conditions: 10 μM for 1-to-24 hours; 1, 3, 10, 20 μM for 12 hours. An excerpt:
FIG. 67, comprising FIGS. 67A-67F, illustrates the finding that Sigma1 ligands may be used to modulate (in this case, decrease) the levels of growth factor receptors such as HER2 and HER3 in breast cancer cells, in the absence of detectable cell death. […] Short exposure to IPAG or lower dosage induces ubiquitin-mediated autophagosomal degradation of HER2/3. Prolonged IPAG treatment or higher dosage caused translational arrest. […] FIG. 67A is a set of immunoblots of HER2 following treatment with IPAG. Detergent soluble whole-cell lysates were solved by denaturing SDS-PAGE. (i) 1-to-24 hour (h) treatment with 10 μM IPAG or 11 μM thapsigargin (TG). (ii) Following 12 hour treatment with 1, 3, 10, 20 μM IPAG. FIG. 67B is a set of immunoblots of HER3 following treatment with IPAG. Detergent soluble whole-cell lysates were solved by denaturing SDS-PAGE. (i) 1-to-24 hour (h) treatment with 10 μM IPAG or 1 μM thapsigargin (TG). (ii) Following 12 hour treatment with 1, 3, 10, 20 μM IPAG. FIG. 67C is a set of immunoblots of detergent soluble whole-cell lysates solved by denaturing SDS-PAGE. […] (iii) Quantification of bands in (i). […] (ii) Quantification of HER3 band in DMSO (vehicle control) treated conditions. (iii) Quantification of HER3 band in IPAG treated conditions.
(In western blotting, separated proteins are transferred to a membrane and probed.)

Test [3] relates to MCF-7, T47D and MDA-MB-468 cells. Put plainly: Cell proliferation by Alamar blue reduction, breast adenocarcinoma cultures. The note with it: after 4 days of treatment, six drug concentrations. The format is cell-based, human. An excerpt: In vitro cell proliferation was quantitated by Alamar blue reduction. The anti-proliferative effects of six drug concentrations of the indicated drugs were quantitated after 4 days of treatment.

T1 sequence (O55242 whole entry): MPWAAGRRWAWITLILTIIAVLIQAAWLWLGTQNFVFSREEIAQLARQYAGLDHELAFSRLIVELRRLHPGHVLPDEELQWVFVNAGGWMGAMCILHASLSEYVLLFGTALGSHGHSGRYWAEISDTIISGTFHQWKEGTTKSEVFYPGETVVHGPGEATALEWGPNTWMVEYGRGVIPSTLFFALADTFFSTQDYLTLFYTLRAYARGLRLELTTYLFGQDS

`N=C(Nc1ccc(I)cc1)NC1C2CC3CC(C2)CC1C3` (stereo not drawn) [IPAG, 1-(4-iodophenyl)-3-(2-adamantyl)guanidine]: the punctae per cell is recorded as 23±2 punctae per cell in test [1] (10 μM IPAG alone, 3-MA experiment) and 12±1 punctae per cell in test [1] (10 μM IPAG with addition of 3-MA (5 mM)). Further, the autophagosomes per cell is 5±1 autophagosomes per cell in test [1] (ATF4 knocked down), 9±2 autophagosomes per cell in test [1] (IRE1α knocked down) and 24±2 autophagosomes per cell in test [1] (no UPR knockdown). For the same molecule, the “GFP-LC3 punctae per cell” value in test [1] (Sigma1-knockdown cells) stood at 10±2 punctae per cell; in test [1] (control siRNA transfected cells) it was 28±4 punctae per cell. Moreover, the “mean number of punctae per cell” value in test [1] (10 μM, knockdown of Beclin1) is 6±1 punctae per cell; in test [1] (10 μM, without Beclin1 knockdown), 28±3 punctae per cell. Also, the “time at which significant formation of autophagosomes was detected” value in test [1] (10 μM, GFP-LC3 punctae and LC3II immunoblot) is 6 to 12 h. The EC50 in test [1] (Homo sapiens, MDA-MB-468, 24 hours of treatment, read-out: potency (EC50±S.E.M.) of autophagosome formation (GFP-LC3 punctae)) worked out at 9 ± 3 µM. Besides, the autophagosome formation in test [1] (IPAG alone, JNK inhibitor experiment) is 23±2; in test [1] (IPAG and JNK inhibitor SP600125) it was 7±1. In test [1] (following 24 hours of treatment), the “concentration at which precipitous cell death occurred” value amounted to 40 µM. Moreover, the “Sigma1-associated p97/VCP in Ni-NTA eluate” value in test [2] is given as “Lower levels of Sigma1-associated p97/VCP”. The “Sigma1-associated ubiquitylated proteins in Ni-NTA eluate” value in test [2] is on record as “Increased levels of Sigma1-associated ubiquitylated proteins”. In the test on HER2/3 in SkBr-3 cells, the “levels of HER2/3” value is “time and dose-dependently causes decreased levels of HER2/3”. The “inhibition of cell proliferation” value in test [3] is “inhibited cell proliferation with comparable potencies in all cell lines”.
